target: T1, MDM2 (Homo sapiens, UniProt Q00987); assay: Inhibition test of MDM2-P53 (GST-MDM2, Biotin-P53, Anti-GST-Tb, SA-XL665); format: binding; details: not given
T1 construct: made in house
How it was run: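 Compounds, serially diluted 5-fold (twelve concentrations), were shaken for 90 min at 25° C with a mix of GST-MDM2 (4 nM final), Biotin-P53, anti-GST-Tb and SA-XL665. Buffer: 1×PBS, 0.1% BSA, 5 mM DTT, 1 mM AEBSF; signal read on a microplate reader.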

T1 sequence (Q00987 whole entry): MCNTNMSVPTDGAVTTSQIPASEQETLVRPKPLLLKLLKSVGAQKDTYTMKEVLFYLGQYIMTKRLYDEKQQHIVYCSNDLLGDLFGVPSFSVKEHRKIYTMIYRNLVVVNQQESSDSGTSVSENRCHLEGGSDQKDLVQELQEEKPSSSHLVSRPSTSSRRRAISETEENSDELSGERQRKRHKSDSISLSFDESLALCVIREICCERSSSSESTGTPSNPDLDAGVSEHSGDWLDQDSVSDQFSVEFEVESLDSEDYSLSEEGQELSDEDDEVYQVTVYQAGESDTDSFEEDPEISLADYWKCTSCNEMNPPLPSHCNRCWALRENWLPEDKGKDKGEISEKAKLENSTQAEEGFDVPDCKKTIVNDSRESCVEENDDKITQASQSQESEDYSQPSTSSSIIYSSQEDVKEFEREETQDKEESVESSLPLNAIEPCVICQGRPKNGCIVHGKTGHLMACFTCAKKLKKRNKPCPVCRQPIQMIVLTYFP

| Compound | IC50 [nM] |
| --- | --- |
| COc1cc(OC)c(-c2nc3c(n2C(C)C)[C@@]2(C(=O)Nc4cc(Cl)ccc42)N(c2ccc(C(N)=O)c(Cl)c2)C3=O)cn1 [Example S-65, (S)-2-chloro-4-(6-chloro-2′-(4,6-dimethoxypyridin-3-yl)-3′-isopropyl-2,6′-dioxo-3′,6′-dihydro-5′H-spiro[dihydroindole-3,4′-pyrrolo[3,4-d]imidazole]-5′-yl)benzamide] | 4.04 |
| COc1cc(C(C)C)ccc1-c1nc2c(n1C(C)C)[C@@]1(C(=O)Nc3cc(Cl)ccc31)N(c1cccc(Cl)c1)C2=O [Example S-93, (S)-6-chloro-5′-(3-chlorophenyl)-3′-isopropyl-2′-(4-isopropyl-2-methoxyphenyl)-3′H-spiro[dihydroindole-3,4′-pyrrolo[3,4-d]imidazole]-2,6′(5′H)-dione] | 3.89 |
| COc1cc(F)c(-c2nc3c(n2C(C)C)[C@@]2(C(=O)Nc4cc(Cl)ccc42)N(c2cc(Cl)ccc2C)C3=O)c(OC)c1 [Example S-130, (S)-6-chloro-5′-(5-chloro-2-methylphenyl)-2′-(2-fluoro-4,6-dimethoxyphenyl)-3′-isopropyl-3′H-spiro[dihydroindole-3,4′-pyrrolo[3,4-d]imidazole]-2,6′(5′H)-dione] | 5.59 |
| COc1ncc(-c2nc3c(n2C(C)C)[C@@]2(C(=O)Nc4cc(Cl)ccc42)N(c2cc(Cl)ccc2C#N)C3=O)c(OC)n1 [Example S-151, (S)-4-chloro-2-(6-chloro-2′-(2,4-dimethoxypyrimidin-5-yl)-3′-isopropyl-2,6′-dioxo-3′,6′-dihydro-5′H-spiro[dihydroindole-3,4′-pyrrolo[3,4-d]imidazole]-5′-yl)benzonitrile] | 1410 |

system: human osteosarcoma cell line SJSA-1; assay: Inhibition of proliferation of human osteosarcoma cell line SJSA-1 (DAPI staining, In Cell Analyzer); details: labels are Example numbers; the compounds with S-configuration are meant

| Compound | inhibitory effect on human osteosarcoma cell line SJSA-1 compared with positive control compound HDM201 |
| --- | --- |
| COc1cc(F)ccc1-c1nc2c(n1C(C)C)C1(C(=O)Nc3cc(Cl)ccc31)N(c1cc(Cl)ccc1C)C2=O (stereo not shown) [Example 4, 6-chloro-5′-(5-chloro-2-methylphenyl)-2′-(4-fluoro-2-methoxyphenyl)-3′-isopropyl-3′H-spiro[dihydroindole-3,4′-pyrrolo[3,4-d]imidazole]-2,6′(5′H)-dione] | better |
| COc1ccc(-c2nc3c(n2C(C)C)C2(C(=O)Nc4cc(Cl)ccc42)N(c2cc(Cl)ccc2C)C3=O)c(OC)c1 (stereo not shown) [Example 9, 6-chloro-5′-(5-chloro-2-methylphenyl)-2′-(2,4-dimethoxyphenyl)-3′-isopropyl-3′H-spiro[dihydroindole-3,4′-pyrrolo[3,4-d]imidazole]-2,6′(5′H)-dione] | better |
| COc1ccc(C#N)cc1-c1nc2c(n1C(C)C)C1(C(=O)Nc3cc(Cl)ccc31)N(c1cc(Cl)ccc1C)C2=O (stereo not shown) [Example 13, 3-(6-chloro-5′-(5-chloro-2-methylphenyl)-3′-isopropyl-2,6′-dioxo-5′,6′-dihydro-3′H-spiro[dihydroindole-3,4′-pyrrolo[3,4-d]imidazole]-2′-yl)-4-methoxybenzonitrile] | better |
| COc1cc(N(C)C)ccc1-c1nc2c(n1C(C)C)C1(C(=O)Nc3cc(Cl)ccc31)N(c1cc(Cl)ccc1C)C2=O (stereo not shown) [Example 23, 6-chloro-5′-(5-chloro-2-methylphenyl)-2′-(4-(dimethylamino)-2-methoxyphenyl)-3′-isopropyl-3′H-spiro[dihydroindole-3,4′-pyrrolo[3,4-d]imidazole]-2,6′(5′H)-dione] | better |
| COc1cc(C)ccc1-c1nc2c(n1C(C)C)C1(C(=O)Nc3cc(Cl)ccc31)N(c1cc(Cl)ccc1C)C2=O (stereo not shown) [Example 24, 6-chloro-5′-(5-chloro-2-methylphenyl)-3′-isopropyl-2′-(2-methoxy-4-methylphenyl)-3′H-spiro[dihydroindole-3,4′-pyrrolo[3,4-d]imidazole]-2,6′(5′H)-dione] | better |
| CNc1ccc(-c2nc3c(n2C(C)C)C2(C(=O)Nc4cc(Cl)ccc42)N(c2cc(Cl)ccc2C)C3=O)c(OC)c1 (stereo not shown) [Example 25] | better |
